# Experiments:
# CK-M = CK-M (Homo sapiens, UniProt P06732); experiment: Inhibitory effect of morphine on ATP formation by creatine kinase; assay type: biochemical; settings: ratio 3n/1n (FIG. 2)
# C57Bl/6J mice = experiment: Intrathecal injection, mechanical nociceptive thresholds of healthy mice, von Frey filaments; assay type: in vivo; settings: for analgesia (mechanical nociceptive threshold vs control): right leg, two-ways ANOVA
# Procedure: (§1) Experiments were performed on adult male C57Bl/6J mice (6 weeks old, Charles River, L'Arbresle, France). Animals were housed in groups of 3, under standard conditions (room temperature: 22° C.; 12/12-hour light-dark cycle) with ad libitum access to food and water. All experiments were conducted according to the recommendations of the European Committee Council Direction of Sep. 22, 2010 (2010/63/EU).
# The functional properties of peptides P1 (20 nmoles) and P4 (10 nmoles) were evaluated through injections in the spinal cord of 4 groups of 6 mice C57B16/J (intrathecal injection, volume of 5 μl). […] Mice were previously placed under gaseous anesthesia with isoflurane (volatile anesthetic agent) with a minimum alveolar concentration (MAC) of 1.34%. A 27-gauge needle connected to a syringe was inserted between the vertebrae L5 and L6, in the subarachnoid space. Isoflurane induced a general anesthesia with respiratory depression in mice.
# (§2) The mechanical threshold for hind paw withdrawal was determined using Von Frey hairs. Mice were placed in clear plexiglass boxes on an elevated mesh screen. Von Frey filaments (Bioseb, Chaville, France) were applied to the plantar surface of each hind paw in a series of ascending forces (0.4 g-15 g). Filaments were tested 5 times per paw, and the mechanical threshold was defined as 3 or more withdrawals out of the 5 trials. Lithium chloride and naloxone (Sigma-Aldrich, St. Louis, U.S.A.) were diluted in NaCl 0.9% (w/v).
# [1] = tested on: C57Bl/6J neuropathic mice; experiment: Intraperitoneal injection, mechanical nociceptive thresholds of neuropathic (cuffed) mice, von Frey filaments; assay type: in vivo; settings: 10 nmoles; for effect on mechanical thresholds of Sham animals: Sham mice
# Procedure: as §1, with “5,” for “3,”
# (§3) All surgeries were done under aseptic conditions and ketamine/xylazine anaesthesia (ketamine: 17 mg/ml, xylazine: 2.5 mg/ml, i.p., 4 ml/kg, i.p.; Centravet, Taden, France). The right sciatic nerve was cuffed with a section of polyethylene tubing (cuff group) as previously described [Mosconi et Kruger, Pain, 64(1): 37-57, 1996] [7].
# as §2, with “trials.” for “trials. Lithium chloride and naloxone (Sigma-Aldrich, St. Louis, U.S.A.) were diluted in NaCl 0.9% (w/v).”
# cuffed mice C57Bl6/J [2] = experiment: Intrathecal injection of AI-25, mechanical nociceptive threshold of cuffed mice; assay type: in vivo; settings: 10 nmoles
# Procedure: (§4) Experiments and surgeries were performed as previously described.
# (§5) The functional property of peptide AI-25 (10 nmoles) was evaluated through injections in the spinal cord of 8 mice C57B16/J (intrathecal injection, volume 5 μl). The aim was to study the consequences of these injections on mechanical nociceptive threshold of cuffed mice using the calibrated forceps test.
# (§6) The mechanical threshold for hind paw withdrawal was determined using Von Frey filaments as previously described.
# cuffed mice C57Bl6/J [3] = experiment: Intrathecal injection of KN-50, mechanical nociceptive threshold of cuffed mice; assay type: in vivo; settings: 33 nmoles, vs saline solution
# Procedure: as §4
# as §5, with “KN-50 (33” for “AI-25 (10”, “nmoles) and NaCl 0.9%” for “nmoles)”, “mice, in comparison of saline solution.” for “mice using the calibrated forceps test.”
# as §6
# [4] = ELISA on peptide-coated plate: affinity for morphine; settings: ligand 300 μM to 0.1 μM
# [5] = tested on: cuffed rats (neuropathic); experiment: Intrathecal injection, cuff neuropathic rat model, calibrated forceps test; assay type: in vivo; settings: 10 nmoles
# Procedure: as §1, with “Wistar at” for “C57Bl/6J mice”, “(2010/63/EU). Procedures were positively evaluated by the regional ethical committee, and experiments were conducted with an official authorization for animal experimentation from the French Department of Agriculture (license 67-116 to P.P.).” for “(2010/63/EU).”
# as §3, with “[7]. Sham-operated mice underwent the same surgical procedure as cuffed animals without implantation of the cuff (sham group).” for “[7].”
# The functional property of peptide P4 (10 nmoles) was evaluated through injections in the spinal cord of 1 groups of 3 rats (intrathecal injection, volume of 5 μl). The aim was to study the consequences of these injections on mechanic nociceptive threshold of cuffed animals in comparison of the sham group (control), using the calibrated forceps test. Rats were previously placed under gaseous anesthesia with isoflurane (volatile anesthetic agent) with a minimum alveolar concentration (MAC) of 1.34%. A 27-gauge needle connected to a syringe was inserted between the vertebrae L5 and L6, in the subarachnoid space.
# The mechanical response was evaluated using digital calibrated forceps (Bioseb, Chaville, France) according to company's recommendations, before and 1 to 6 hours after intrathecal injections.
# [6] = intrathecal, 10 nmoles, healthy mice
# [7] = neuropathic mice, comparison to baseline
# [8] = intrathecal, 20 nmoles, healthy mice
# CK-M, sequence (P06732 whole entry, species assumed): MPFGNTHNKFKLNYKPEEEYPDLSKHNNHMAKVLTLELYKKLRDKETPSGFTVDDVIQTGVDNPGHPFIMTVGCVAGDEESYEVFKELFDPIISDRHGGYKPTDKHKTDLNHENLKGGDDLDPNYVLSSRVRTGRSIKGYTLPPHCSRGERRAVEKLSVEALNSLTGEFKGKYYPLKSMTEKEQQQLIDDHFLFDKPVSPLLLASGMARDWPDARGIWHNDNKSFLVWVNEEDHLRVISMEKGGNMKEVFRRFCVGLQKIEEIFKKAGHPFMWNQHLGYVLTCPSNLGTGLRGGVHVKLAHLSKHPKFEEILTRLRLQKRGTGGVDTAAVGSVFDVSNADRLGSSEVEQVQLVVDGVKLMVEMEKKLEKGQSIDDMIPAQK
molecule,measurement,setting,value
"CN1CC[C@]23c4c5ccc(O)c4O[C@H]2[C@@H](O)C=C[C@H]3[C@H]1C5 [morphine, reference compound]",inhibition of enzymatic activity of CK (production of ATP from phosphocreatine),CK-M,~18%
same,analgesia on right leg 4 hours after injection,"C57Bl/6J mice; intrathecal, 10 nmoles, healthy mice, Holm-Sidak",significant analgesia
same,analgesia (mechanical nociceptive threshold vs control),C57Bl/6J mice; [6],induced a significant analgesia
same,effect on mechanical thresholds of Sham animals,[1],No significant effect
same,"analgesic effect, ipsilateral paw, at 3 h",[1]; [7],significant analgesic effect
"peptide AI-25: peptide derived from P4, amino acids 214-238 (SEQ ID NO: 4) of mouse creatine kinase B","neuropathic pain, ipsilateral paw mechanical threshold",cuffed mice C57Bl6/J [2],reversed the neuropathic pain
same,non-cuffed contralateral paw mechanical threshold,cuffed mice C57Bl6/J [2],did not significantly affect
same,"neuropathic pain, ipsilateral paw mechanical threshold",cuffed mice C57Bl6/J [2]; listed as amino acids 214-238,present analgesic activity
"peptide KN-50: peptide derived from P4, amino acids 196-246 (SEQ ID NO: 5) of mouse creatine kinase B","neuropathic pain, ipsilateral paw mechanical threshold",cuffed mice C57Bl6/J [3],reversed the neuropathic pain
same,non cuffed contralateral paw mechanical threshold,cuffed mice C57Bl6/J [3],did not affect
same,"neuropathic pain, ipsilateral paw mechanical threshold",cuffed mice C57Bl6/J [3]; listed as amino acids 196-246,present analgesic activity
peptide P1: peptide consisting of amino acids 1-75 (SEQ ID NO: 2) from the mouse CK-B sequence SEQ ID NO: 1,values of von Frey / sensitivity towards mechanical stimulation,C57Bl/6J mice; [8],close or equal to cut-off
same,analgesia (mechanical nociceptive threshold vs control),C57Bl/6J mice; [8],induced a significant analgesia
same,values of von Frey / sensitivity towards mechanical stimulation,"C57Bl/6J mice; intrathecal, 20 nmoles, healthy mice, listed as amino acids 1-75",almost complete insensitivity
same,occlusion of analgesic activity by morphine,C57Bl/6J mice; peptide 20 nmoles injected in presence of 10 nmoles of morphine,occlusion of analgesic activity
same,affinity for morphine,[4],showed an affinity
peptide P4: peptide consisting of amino acids 184-258 (SEQ ID NO: 3) of the mouse CK-B sequence SEQ ID NO: 1,values of von Frey / sensitivity towards mechanical stimulation,C57Bl/6J mice; [6],close or equal to cut-off
same,analgesia (mechanical nociceptive threshold vs control),C57Bl/6J mice; [6],induced a significant analgesia
same,values of von Frey / sensitivity towards mechanical stimulation,"C57Bl/6J mice; intrathecal, 10 nmoles, healthy mice, listed as amino acids 184-258",almost complete insensitivity
same,occlusion of analgesic activity by morphine,C57Bl/6J mice; peptide 10 nmoles injected in presence of 10 nmoles of morphine,not observed
same,"neuropathic pain, ipsilateral paw mechanical threshold",[5]; cuffed rats,reverses the neuropathic pain
same,non-cuffed contralateral paw mechanical threshold,[5]; cuffed rats,did not affect
same,duration of analgesia,"[5]; cuffed rats, ipsilateral paw",at least 6 h
same,"neuropathic pain, ipsilateral paw mechanical threshold","[5]; cuffed rats, listed as peptide 4",reversed the neuropathic pain
same,mechanical threshold of the sham group,[5]; sham rats,did not affect
same,effect on mechanical thresholds of Sham animals,[1],No significant effect
same,basic mechanical nociceptive thresholds of the contralateral hind legs,[1]; neuropathic mice,do not modify
same,"analgesic effect, ipsilateral paw, at 3 h",[1]; [7],significant analgesic effect
same,"analgesic effect, ipsilateral paw, at 4 h post injection",[1]; [7],significant analgesic effect
same,affinity for morphine,[4],showed an affinity

# Reference: patent US20180264088A1, “USE OF CREATINE KINASE AND DERIVED PEPTIDES THEREOF TO RELIEVE PAIN” (CENTRE NATIONAL DE LA RECHERCHE SCIENTIFIQUE, priority 2015, published 2018)
